# In ChEMBL document CHEMBL1201862, “PubChem BioAssay data set” (2004):
#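 Exposure lasted 48 hours, with cells grown in 96-well plates and compounds tested at five concentrations. GI50 marks 50% less growth.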 Activity calls are given as the source filed them. No stated cut-off is given here; in the data, active = GI50 up to about 1.1 µM and inactive = higher. Non-standard residues stand in square brackets, D forms with d. Residues, ends and D or L forms follow the SMILES beside them. *: point of attachment. Bn2Val = CC(C)[C@@H](C(=O)*)N(Cc1ccccc1)Cc1ccccc1; NMeV = CN[C@H](C(=O)O)C(C)C; X32 = COc1ccc(CN*)c(OC)c1; dNMeA = CN[C@H](C)C(=O)O
# Columns and labels:
# Assay in all cases: DTP human tumour cell line panel, 48 h
# RPMI-8226 = tested on: RPMI-8226
# Malme-3M = tested on: Malme-3M
# TK-10 = tested on: TK-10
# RXF 393 = tested on: RXF 393
# SR = tested on: SR
# MCF7 = tested on: MCF7
# LOX IMVI = tested on: LOX IMVI
# DU-145 = tested on: DU-145
# SNB-75 = tested on: SNB-75
# SK-OV-3 = tested on: SK-OV-3
# NCI-H460 = tested on: NCI-H460
# OVCAR-5 = tested on: OVCAR-5
# A549 = tested on: A549
# SF-539 = tested on: SF-539
# HT-29 = tested on: HT-29
# Hs-578T = tested on: Hs-578T
# UO-31 = tested on: UO-31
# KM12 = tested on: KM12
# SF-268 = tested on: SF-268
# CCRF-CEM = tested on: CCRF-CEM
SMILES,GI50 (RPMI-8226),GI50 (Malme-3M),GI50 (TK-10),GI50 (RXF 393),GI50 (SR),GI50 (MCF7),GI50 (LOX IMVI),GI50 (DU-145),GI50 (SNB-75),GI50 (SK-OV-3),GI50 (NCI-H460),GI50 (OVCAR-5),GI50 (A549),GI50 (SF-539),GI50 (HT-29),GI50 (Hs-578T),GI50 (UO-31),GI50 (KM12),GI50 (SF-268),GI50 (CCRF-CEM)
Cc1nc(O)c2c3c(sc2n1)CCCC3,84.9 µM (inactive),> 100 µM (inactive),> 100 µM (inactive),> 100 µM (inactive),27 µM (inactive),41.4 µM (inactive),72.4 µM (inactive),> 100 µM (inactive),> 100 µM (inactive),> 100 µM (inactive),0.284 µM (active),60.7 µM (inactive),78.5 µM (inactive),56.8 µM (inactive),54.7 µM (inactive),> 100 µM (inactive),20.4 µM (inactive),> 100 µM (inactive),> 100 µM (inactive),–
Cc1ccc(NC(=S)N/N=C2\C(=O)Nc3ccccc32)cc1,> 100 µM (inactive),> 100 µM (inactive),> 100 µM (inactive),84.7 µM (inactive),87.7 µM (inactive),> 100 µM (inactive),66.5 µM (inactive),4.43 µM (inactive),> 100 µM (inactive),> 100 µM (inactive),83 µM (inactive),> 100 µM (inactive),> 100 µM (inactive),> 100 µM (inactive),> 100 µM (inactive),> 100 µM (inactive),78.5 µM (inactive),> 100 µM (inactive),1.69 µM (inactive),72.1 µM (inactive)
CC(C)(C)C1CCC2c3c([nH]c4ccccc34)C3C(=O)N(c4ccc([N+](=O)[O-])cc4)C(=O)C3C2C1 (configuration not stated),27 µM (inactive),20.5 µM (inactive),21.3 µM (inactive),10.4 µM (inactive),3.27 µM (inactive),2.79 µM (inactive),8.34 µM (inactive),26.7 µM (inactive),16.9 µM (inactive),35.1 µM (inactive),13.6 µM (inactive),25.2 µM (inactive),10.8 µM (inactive),20.7 µM (inactive),3.89 µM (inactive),11.4 µM (inactive),–,1.77 µM (inactive),7.36 µM (inactive),8.51 µM (inactive)
Fc1ccc(C(OCCN2CCC3CCC(C2)N3C/C=C/c2ccco2)c2ccc(F)cc2)cc1 (configuration not stated),4.2 µM (inactive),9.57 µM (inactive),6.93 µM (inactive),4.4 µM (inactive),2.47 µM (inactive),10.2 µM (inactive),11.2 µM (inactive),15.7 µM (inactive),15.1 µM (inactive),14.6 µM (inactive),7.11 µM (inactive),–,12.5 µM (inactive),14.1 µM (inactive),–,14.7 µM (inactive),15.1 µM (inactive),9.1 µM (inactive),12.5 µM (inactive),0.0459 µM (active)
C[C@@H](c1ccccc1)N(CC#N)[C@H]1CCC[C@]1(O)/C=C/c1ccc2c(c1)OCO2,> 25 µM (inactive),> 25 µM (inactive),> 25 µM (inactive),> 25 µM (inactive),> 25 µM (inactive),5.65 µM (inactive),> 25 µM (inactive),> 25 µM (inactive),> 25 µM (inactive),> 25 µM (inactive),> 25 µM (inactive),> 25 µM (inactive),> 25 µM (inactive),–,> 25 µM (inactive),> 25 µM (inactive),> 25 µM (inactive),> 25 µM (inactive),> 25 µM (inactive),> 25 µM (inactive)
CCc1c(Cc2cccc3ccccc23)n2c(nc1=O)SCC2OCCO (configuration not stated),25.7 µM (inactive),> 100 µM (inactive),> 100 µM (inactive),> 100 µM (inactive),25.9 µM (inactive),50.5 µM (inactive),79.3 µM (inactive),88.3 µM (inactive),> 100 µM (inactive),–,> 100 µM (inactive),> 100 µM (inactive),77.3 µM (inactive),> 100 µM (inactive),55.3 µM (inactive),> 100 µM (inactive),> 100 µM (inactive),56.5 µM (inactive),55.7 µM (inactive),19.6 µM (inactive)
CS(=O)(=O)Nc1ccc2c(c1)N(S(C)(=O)=O)CC2COS(C)(=O)=O (configuration not stated),25.8 µM (inactive),39.9 µM (inactive),36.8 µM (inactive),18.7 µM (inactive),23.3 µM (inactive),> 10 µM (inactive),70 µM (inactive),58.9 µM (inactive),57.7 µM (inactive),–,90.8 µM (inactive),40.5 µM (inactive),> 100 µM (inactive),41.9 µM (inactive),> 100 µM (inactive),94.2 µM (inactive),> 100 µM (inactive),> 100 µM (inactive),> 10 µM (inactive),35.8 µM (inactive)
O=C(O)C1C2CCC(O2)C1C(=O)NCc1cccnc1 (configuration not stated),> 100 µM (inactive),> 100 µM (inactive),> 100 µM (inactive),> 100 µM (inactive),> 100 µM (inactive),> 100 µM (inactive),> 100 µM (inactive),> 100 µM (inactive),> 100 µM (inactive),> 100 µM (inactive),> 100 µM (inactive),> 100 µM (inactive),> 100 µM (inactive),> 100 µM (inactive),> 100 µM (inactive),> 100 µM (inactive),> 100 µM (inactive),> 100 µM (inactive),–,> 100 µM (inactive)
CCN(CC)CCC(=O)c1ccc(Oc2ccc(C)cc2)cc1,7.29 µM (inactive),17.5 µM (inactive),17.7 µM (inactive),16.4 µM (inactive),26.2 µM (inactive),17.6 µM (inactive),16.7 µM (inactive),29.1 µM (inactive),20.2 µM (inactive),28.4 µM (inactive),–,19.5 µM (inactive),> 100 µM (inactive),18.8 µM (inactive),18.9 µM (inactive),23.4 µM (inactive),–,10.9 µM (inactive),18.8 µM (inactive),26.3 µM (inactive)
C=C(c1ccccc1)C1ON(C)CCc2cc(OC)c(OC)cc21 (configuration not stated),> 100 µM (inactive),96.4 µM (inactive),> 100 µM (inactive),> 100 µM (inactive),88.7 µM (inactive),0.256 µM (active),26.2 µM (inactive),> 100 µM (inactive),> 100 µM (inactive),> 100 µM (inactive),> 100 µM (inactive),> 100 µM (inactive),> 100 µM (inactive),> 100 µM (inactive),75.3 µM (inactive),18.3 µM (inactive),81.5 µM (inactive),> 100 µM (inactive),49.2 µM (inactive),> 100 µM (inactive)
COC(=O)c1ccc(Oc2nc3ccc(C(F)(F)F)cc3nc2-c2ccccc2)cc1,62.8 µM (inactive),> 100 µM (inactive),> 100 µM (inactive),74.5 µM (inactive),92.3 µM (inactive),24.9 µM (inactive),> 100 µM (inactive),> 100 µM (inactive),> 100 µM (inactive),> 100 µM (inactive),83.2 µM (inactive),> 100 µM (inactive),> 100 µM (inactive),> 100 µM (inactive),> 100 µM (inactive),> 100 µM (inactive),> 100 µM (inactive),> 100 µM (inactive),> 100 µM (inactive),> 100 µM (inactive)
CCOC(=O)/C(=C\c1ccc(CO)o1)P(=O)(OCC)OCC,40.7 µM (inactive),20.8 µM (inactive),49.5 µM (inactive),34.3 µM (inactive),41.9 µM (inactive),43.9 µM (inactive),18.5 µM (inactive),41.9 µM (inactive),33 µM (inactive),68.5 µM (inactive),17 µM (inactive),50 µM (inactive),> 100 µM (inactive),19.7 µM (inactive),33.2 µM (inactive),36.1 µM (inactive),–,33.3 µM (inactive),28.2 µM (inactive),–
c1ccc2c(c1)-c1ccccc1C2NC1=NCCO1,28.4 µM (inactive),13.1 µM (inactive),28.1 µM (inactive),42.2 µM (inactive),30.3 µM (inactive),22.5 µM (inactive),20.5 µM (inactive),52.6 µM (inactive),15.4 µM (inactive),31.4 µM (inactive),14 µM (inactive),38.8 µM (inactive),32.4 µM (inactive),21.7 µM (inactive),21.7 µM (inactive),55 µM (inactive),24.1 µM (inactive),14.2 µM (inactive),30 µM (inactive),32.6 µM (inactive)
COc1ccc(CNC(=O)[C@@H]2CCCN2C(=O)[C@@H](C)N(C)C(=O)[C@H](C(C)C)N(C)C(=O)[C@@H](NC(=O)[C@H](C(C)C)N(Cc2ccccc2)Cc2ccccc2)C(C)C)c(OC)c1 (Bn2Val-V[NMeV][dNMeA]P-X32),2.67 µM (inactive),5.12 µM (inactive),4.47 µM (inactive),1.85 µM (inactive),2.15 µM (inactive),3.19 µM (inactive),2.84 µM (inactive),6.15 µM (inactive),1.52 µM (inactive),10.7 µM (inactive),3.52 µM (inactive),1.59 µM (inactive),3.77 µM (inactive),2.44 µM (inactive),1.74 µM (inactive),7.53 µM (inactive),3.86 µM (inactive),2.36 µM (inactive),3.71 µM (inactive),–
